Experimental data from patent publication US7553966B2, “Glucocorticoid mimetics, methods of making them, pharmaceutical compositions, and uses thereof” (Boehringer Ingelheim Pharmaceuticals, Inc., priority 2002, dated 2009).

What was measured:
[1] = target: T1, human glucocorticoid receptor (GR) complex (Homo sapiens, UniProt P04150); assay: Glucocorticoid Receptor Competitive Binding Assay (fluorescence polarization, TAMRA-labeled dexamethasone probe); details: qualitative statement; competition with TAMRA-labeled dexamethasone
T1 construct: made in house; host or cells: insect expression system (baculovirus lysate)
T1 sequence (P04150 1-777): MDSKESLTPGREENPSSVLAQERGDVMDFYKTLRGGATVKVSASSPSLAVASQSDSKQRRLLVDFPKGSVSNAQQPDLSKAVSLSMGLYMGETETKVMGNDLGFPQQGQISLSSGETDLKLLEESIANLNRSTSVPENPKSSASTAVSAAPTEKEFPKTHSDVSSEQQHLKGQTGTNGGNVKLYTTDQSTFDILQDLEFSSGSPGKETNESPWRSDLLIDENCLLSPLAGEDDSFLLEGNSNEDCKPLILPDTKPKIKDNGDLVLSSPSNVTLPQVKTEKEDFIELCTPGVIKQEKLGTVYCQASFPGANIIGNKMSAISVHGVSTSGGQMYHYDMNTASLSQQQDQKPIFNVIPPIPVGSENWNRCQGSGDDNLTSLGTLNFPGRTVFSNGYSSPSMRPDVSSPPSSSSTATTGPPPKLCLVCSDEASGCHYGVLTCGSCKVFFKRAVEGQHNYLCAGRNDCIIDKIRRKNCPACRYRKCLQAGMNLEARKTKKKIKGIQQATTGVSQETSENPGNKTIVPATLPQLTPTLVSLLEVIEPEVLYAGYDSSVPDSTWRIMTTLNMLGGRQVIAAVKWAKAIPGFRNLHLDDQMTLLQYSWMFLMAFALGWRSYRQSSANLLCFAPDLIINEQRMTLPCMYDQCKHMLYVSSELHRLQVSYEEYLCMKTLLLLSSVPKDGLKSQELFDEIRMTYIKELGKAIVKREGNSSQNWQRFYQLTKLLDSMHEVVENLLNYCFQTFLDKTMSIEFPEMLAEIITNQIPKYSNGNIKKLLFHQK
Method in brief: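 Competition with TAMRA-dexamethasone for a human GR complex expressed in insect cells, read by fluorescence polarization. Buffer was 10 mM TES, 50 mM KCl, 20 mM Na2MoO4, 1.5 mM EDTA, 0.04% CHAPS, 10% glycerol, 1 mM DTT, pH 7.4.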

glucocorticoid receptor = assay: Glucocorticoid Receptor Cell Assays (agonist activity in one or more of the above assays); type: cell-based; details: qualitative statement; assay not specified
Method: B. Glucocorticoid Receptor Cell Assays
1. Induction of Aromatase in Fibroblasts (Cell Assay for Transactivation)
Dexamethasone, a synthetic ligand to the glucocorticoid receptor (GR), induces expression of aromatase in human foreskin fibroblast cells. The activity of aromatase is measured by the conversion of testosterone to estradiol in culture media.
On the day of the experiment, the media in the wells is replaced with fresh media. Cells are treated with test compounds to final concentrations of 10^−5 M to 10^−8 M, and testosterone to a final concentration of 300 ng/mL. Each well has a total volume of 100 μL. Samples are made in duplicates. Control wells include: (a) wells that receive testosterone only, and (b) wells that receive testosterone plus 2 μM of dexamethasone to provide maximum induction of aromatase. Plates are incubated at 37° C. overnight (15 to 18 hours), and supernatants are harvested at the end of incubation. […] The amount of estradiol is inversely proportional to the ELISA signals in each well. The extent of aromatase induction by test compounds is expressed as a relative percentage to dexamethasone. EC50 values of test compounds are derived by non-linear curve fitting.
2. Inhibition of IL-6 Production in Fibroblasts (Cell Assay for Transrepression)
Human foreskin fibroblast cells produce IL-6 in response to stimulation by pro-inflammatory cytokine IL-1.
On the next day, media in the wells is replaced with fresh media. Cells are treated with IL-1 (rhIL-1α, R&D Systems Cat. No. 200-LA) to a final concentration of 1 ng/mL, and with test compounds to final concentrations of 10^−5 M to 10^−8 M, in a total volume of 200 μL per well. Samples are done in duplicates. […] Positive control wells receive IL-1 only and represent maximum (or 100%) amount of IL-6 production. Plates are incubated at 37° C. overnight (15 to 18 hours), and supernatants are harvested at the end of incubation. IL-6 levels in the supernatants are determined by the ELISA kits for IL-6 (MedSystems Diagnostics GmbH, Vienna, Austria, Cat. No. BMS213TEN) according to manufacture's instructions. The extent of inhibition of IL-6 by test compounds is expressed in percentage relative to positive controls. IC50 values of test compounds are derived by non-linear curve fitting.
Evaluation of agonist or antagonist activity of compounds binding to the glucocorticoid receptor may be determined by any of the assays.
3. Modulation of Tyrosine Aminotransferase (TAT) Induction in Rat Hepatoma Cells
Testing of compounds for agonist or antagonist activity in induction of tyrosine aminotransferase (TAT) in rat hepatoma cells.
H4-II-E-C3 cells were incubated overnight in 96 well plates (20,000 cells/100 μL/well) in MEM medium containing 10% heat inactivated FBS and 1% nonessential amino acids. On the next day, cells were stimulated with the indicated concentrations of dexamethasone or test compound (dissolved in DMSO, final DMSO concentration 0.2%) for 18 hours. Control cells were treated with 0.2% DMSO. After 18 hours, the cells were lysed in a buffer containing 0.1% Triton X-100 and the TAT activity was measured in a photometric assay using tyrosine and alpha-ketoglutarate as substrates.
For measuring antagonist activity, the hepatoma cells were pre-stimulated by addition of dexamethasone (concentration ranges from 3×10^−9 M to 3×10^−8 M) shortly before the test compound was applied to the cells.
4. Modulation of MMTV-Luc Induction in HeLa Cells
Testing of compounds for agonist or antagonist activity in stimulation of MMTV-(mouse mammary tumor virus) promoter in HeLa cells.
Cells were cultured overnight in DMEM medium without phenol red, supplemented with 3% CCS (charcoal treated calf serum) and then transferred to 96 well plates (15,000 cells/100 μL/well).

Row | activity in the GR binding assay [1] | SMILES | activity as agonists of the glucocorticoid receptor function in one or more of the above assays (glucocorticoid receptor)
1 | potent activity | Cc1cc2c(c(C(C)(C)CC(O)(Cc3ccnc4ccccc34)C(F)(F)F)c1)OCC2 (stereo not drawn) [1,1,1-Trifluoro-4-methyl-4-(5-methyl-2,3-dihydrobenzofuran-7-yl)-2-quinolin-4-ylmethylpentan-2-ol] | potent agonists
2 | potent activity | CC(C)(CC(O)(Cc1cc2ccncc2[nH]1)C(F)(F)F)c1cc(F)ccc1O (stereo not drawn) [4-Fluoro-2-[4,4,4-trifluoro-3-hydroxy-1,1-dimethyl-3-(1H-pyrrolo[2,3-c]pyridin-2-ylmethyl)butyl]phenol] | potent agonists
3 | potent activity | CC(C)(CC(O)(Cc1cc2ccccc2[nH]1)C(F)(F)F)c1cc(F)cc2c1OCC2 (stereo not drawn) [1,1,1-Trifluoro-4-(5-fluoro-2,3-dihydrobenzofuran-7-yl)-2-(1H-indol-2-ylmethyl)-4-methylpentan-2-ol] | potent agonists
4 | potent activity | Cc1cc2c(c(C(C)(C)CC(O)(Cc3cc4ccccc4[nH]3)C(F)(F)F)c1)OCC2 (stereo not drawn) [1,1,1-Trifluoro-2-(1H-indol-2-ylmethyl)-4-methyl-4-(5-methyl-2,3-dihydrobenzofuran-7-yl)pentan-2-ol] | potent agonists
5 | potent activity | Cc1cc(C#N)cc2[nH]c(CC(O)(CC(C)(C)c3cccc4c3OCC4)C(F)(F)F)cc12 (stereo not drawn) [2-[4-(2,3-Dihydrobenzofuran-7-yl)-2-hydroxy-4-methyl-2-trifluoromethylpentyl]-4-methyl-1H-indole-6-carbonitrile] | potent agonists
6 | potent activity | Cc1cccc(C(C)(C)CC(O)(Cc2cc3ccccc3[nH]2)C(F)(F)F)c1 (stereo not drawn) [1,1,1-Trifluoro-2-(1H-indol-2-ylmethyl)-4-methyl-4-m-tolylpentan-2-ol] | potent agonists
7 | potent activity | CC(C)(CC(O)(Cc1cc2ccccc2[nH]1)C(F)(F)F)c1cc(Br)cc2c1OCC2 (stereo not drawn) [4-(5-Bromo-2,3-dihydrobenzofuran-7-yl)-1,1,1-trifluoro-2-(1H-indol-2-ylmethyl)-4-methylpentan-2-ol] | potent agonists
8 | potent activity | CC(C)(CC(O)(Cc1[nH]c2ccccc2c1C#N)C(F)(F)F)c1cc(F)cc2c1OCC2 (stereo not drawn) [2-[4-(5-Fluoro-2,3-dihydrobenzofuran-7-yl)-2-hydroxy-4-methyl-2-trifluoromethylpentyl]-1H-indole-3-carbonitrile] | potent agonists
9 | potent activity | Cc1ccccc1C(C)(C)CC(O)(Cc1cc2ccccc2[nH]1)C(F)(F)F (stereo not drawn) [1,1,1-Trifluoro-2-(1H-indol-2-ylmethyl)-4-methyl-4-o-tolylpentan-2-ol] | potent agonists
10 | potent activity | Cc1ccc(F)cc1C(C)(C)CC(O)(Cc1cc2c(C)cccc2[nH]1)C(F)(F)F (stereo not drawn) [1,1,1-Trifluoro-4-(5-fluoro-2-methylphenyl)-4-methyl-2-(4-methyl-1H-indol-2-ylmethyl)pentan-2-ol] | potent agonists

Second part, the molecule before the results:

Row | SMILES | activity in the GR binding assay [1] | activity as agonists of the glucocorticoid receptor function in one or more of the above assays (glucocorticoid receptor)
11 | COc1cc(F)ccc1C(C)(C)CC(O)(Cc1ccnc2ccccc12)C(F)(F)F (stereo not drawn) [1,1,1-Trifluoro-4-(4-fluoro-2-methoxyphenyl)-4-methyl-2-quinolin-4-ylmethylpentan-2-ol] | potent activity | potent agonists
12 | COc1ccc(F)cc1C(C)(C)CC(O)(Cc1cc2ccncc2[nH]1)C1CC1 (stereo not drawn) [2-Cyclopropyl-4-(5-fluoro-2-methoxyphenyl)-4-methyl-1-(1H-pyrrolo[2,3-c]pyridin-2-yl)pentan-2-ol] | potent activity | agonists
13 | COc1ccc(Br)cc1C(C)(C)CC(O)(Cc1ccnc2ccccc12)C(F)(F)F (stereo not drawn) [4-(5-Bromo-2-methoxyphenyl)-1,1,1-trifluoro-4-methyl-2-quinolin-4-ylmethylpentan-2-ol] | potent activity | potent agonists
14 | CC(C)(CC(O)(Cc1cc2cnccc2[nH]1)C(F)(F)F)c1ccccc1 (stereo not drawn) [1,1,1-Trifluoro-4-methyl-4-phenyl-2-(1H-pyrrolo[3,2-c]pyridin-2-ylmethyl)pentan-2-ol] | potent activity | potent agonists
15 | CC(C)(CC(O)(Cc1ccnc2ccccc12)C(F)(F)F)c1ccc(F)cc1O (stereo not drawn) [5-Fluoro-2-(4,4,4-trifluoro-3-hydroxy-1,1-dimethyl-3-quinolin-4-ylmethylbutyl)phenol] | potent activity | potent agonists
16 | COc1ccc(F)cc1C(C)(C)CC(O)(Cc1cc2cccc(F)c2[nH]1)C(F)(F)F (stereo not drawn) [1,1,1-Trifluoro-2-(7-fluoro-1H-indol-2-ylmethyl)-4-(5-fluoro-2-methoxyphenyl)-4-methylpentan-2-ol] | potent activity | potent agonists
17 | COc1cc(F)ccc1C(C)(C)CC(O)(Cc1cc2cnccc2[nH]1)C(F)(F)F (stereo not drawn) [1,1,1-Trifluoro-4-(4-fluoro-2-methoxyphenyl)-4-methyl-2-(1H-pyrrolo[3,2-c]pyridin-2-ylmethyl)pentan-2-ol] | potent activity | potent agonists
18 | CC(C)(CC(O)(Cc1ccnc2ccccc12)C(F)(F)F)c1cc(Br)ccc1O (stereo not drawn) [4-Bromo-2-(4,4,4-trifluoro-3-hydroxy-1,1-dimethyl-3-quinolin-4-ylmethylbutyl)phenol] | potent activity | potent agonists
